Results reported in publication PMC7182439 (Cell, 2019).

Experiments:
[1] = molecular target: T1, SpCas9 (Streptococcus pyogenes, UniProt Q99ZW2); assay: eGFP-disruption assay; type: cell-based
[2] = molecular target: T1, SpCas9; assay: in vitro DNA cleavage assay; type: biochemical

T1 sequence (Q99ZW2 whole entry): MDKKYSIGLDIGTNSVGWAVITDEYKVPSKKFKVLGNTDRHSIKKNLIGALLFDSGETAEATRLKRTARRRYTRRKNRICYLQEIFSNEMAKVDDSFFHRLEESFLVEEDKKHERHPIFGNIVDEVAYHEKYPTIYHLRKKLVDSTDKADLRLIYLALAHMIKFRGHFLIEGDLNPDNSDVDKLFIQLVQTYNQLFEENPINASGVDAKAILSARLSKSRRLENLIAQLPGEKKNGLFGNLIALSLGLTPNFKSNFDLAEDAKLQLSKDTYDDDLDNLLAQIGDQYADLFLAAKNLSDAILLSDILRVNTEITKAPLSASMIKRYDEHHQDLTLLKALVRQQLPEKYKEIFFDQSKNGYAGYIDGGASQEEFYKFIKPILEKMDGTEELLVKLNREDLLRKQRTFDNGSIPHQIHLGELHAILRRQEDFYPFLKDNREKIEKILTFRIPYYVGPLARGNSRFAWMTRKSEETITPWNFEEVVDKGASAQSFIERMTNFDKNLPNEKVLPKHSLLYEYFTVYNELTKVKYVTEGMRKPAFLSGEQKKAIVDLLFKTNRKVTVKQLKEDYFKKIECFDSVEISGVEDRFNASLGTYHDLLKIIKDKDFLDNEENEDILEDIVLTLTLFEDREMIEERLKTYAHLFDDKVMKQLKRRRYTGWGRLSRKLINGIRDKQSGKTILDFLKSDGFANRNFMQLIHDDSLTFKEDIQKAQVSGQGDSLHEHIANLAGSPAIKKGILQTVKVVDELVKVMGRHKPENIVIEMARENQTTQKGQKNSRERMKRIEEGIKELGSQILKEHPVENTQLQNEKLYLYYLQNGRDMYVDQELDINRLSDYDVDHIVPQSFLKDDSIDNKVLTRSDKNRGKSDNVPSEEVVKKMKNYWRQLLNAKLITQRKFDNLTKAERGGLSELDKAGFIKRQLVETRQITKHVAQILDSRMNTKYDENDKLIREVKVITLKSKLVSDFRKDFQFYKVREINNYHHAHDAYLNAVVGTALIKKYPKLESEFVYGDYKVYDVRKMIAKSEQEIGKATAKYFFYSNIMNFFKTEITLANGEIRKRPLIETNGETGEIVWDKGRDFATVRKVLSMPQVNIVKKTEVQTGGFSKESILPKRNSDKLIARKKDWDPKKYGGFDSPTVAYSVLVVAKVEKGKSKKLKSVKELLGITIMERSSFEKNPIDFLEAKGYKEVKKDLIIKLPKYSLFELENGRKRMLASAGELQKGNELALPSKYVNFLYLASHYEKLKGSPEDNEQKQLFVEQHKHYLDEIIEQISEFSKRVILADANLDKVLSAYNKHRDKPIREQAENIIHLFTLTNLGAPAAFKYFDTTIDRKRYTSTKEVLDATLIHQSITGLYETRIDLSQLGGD

Compound	EC50 [1] [µM]	IC50 [2] [µM]
COc1cccc(-c2ccc3c(c2)[C@H]2[C@H](CCN2C(=O)Cc2ccncc2)[C@H](CO)N3C)c1 [BRD3433]	9.3	
Cc1ccc(S(=O)(=O)N2CC[C@@H]3[C@H](CO)Nc4ccc(-c5ccccc5F)cc4[C@@H]32)cc1 [BRD0539]		22
